Legend:
Format in all cases: cell-based, Balb/c mice
[1] = test system: GA-specific polarized Th2 cells; assay: GA-Th2 assay: IL-4 in culture media by ELISA; details: 0 to 50 μg/ml antigen, 24 hours, sandwich ELISA
Protocol: Populations of Th2 cells and APC cells were reanimated in culture media (RPMI/5% FBS/20 ng/mL IL-2), added dropwise. Cells were pelleted at 400-800G before being resuspended in fresh culture media for use in the assay. […] The final volume for the assay was 0.2 mL. The set up for the Th2 assay is illustrated in FIG. 7.
Conditioned culture media was collected 24 hours post stimulation for analysis by multiplex assay and ELISA.
The response curve was fit to the four parameter logistic fit equation using nonlinear regression and the EC50 (μg/ml) was calculated. One-way ANOVA followed by Tukey's multiple comparison test (significance level, p<0.05) was used for statistical testing of the dataset for each plate.
IL-4 levels were determined by sandwich ELISA.

CD4+ T cells = assay: Cytokine levels in culture media of CD4+ T cells from GA-immunized mice after restimulation with antigen and APCs (multiplex); details: for levels of Th2 cytokines induced: after a second round of stimulation, 20 μg antigen
Protocol: Balb/c mice (Jackson Labs) were immunized with 250 μg/mL of GA (reference lot drug (RLD) or ovalbumin (OVA), each in saline, emulsified in complete Freund's adjuvant (CFA) on day 1. On day 11, the draining lymph nodes were harvested, single cell suspensions were made, and CD4+ T cells were enriched by negative selection immunomagnetic bead purification.
For ex vivo challenge, CD4+ T cells (1×10^6/ml) were re-stimulated with 20 μg/mL of the same antigen used to immunize the mice (RLD, GA, or OVA) in the presence of freshly isolated or frozen naïve mitomycin C-treated splenic APCs (1×10^7/ml) for 3-4 days, at which time, the culture media was replaced with fresh culture media supplemented with 20 ng/ml of IL-2. Cells were split and reseeded at 800,000 cells/mL in media containing 4 parts fresh media (RPMI/5% FBS/20 ng/mL IL-2) and 1 part recycled media from the previous culture. This cycle of changing the media and splitting the cells was repeated for 6 cycles. Cells were frozen and stored as a cell bank.
After cell propagation, the CD4+ T cells were restimulated once again with freshly isolated naïve mitomycin C-treated splenic APCs (1×10^7/ml) for 4 days and 20 μg of the respective antigen. Culture supernatants were collected 72 hours after the start of each restimulation for analysis.
Th1 (IL-2 and IL-12p40), Th2 (IL-4, IL-5 IL-6, IL-10, and IL-13) and Th17 (IL-17) cytokine levels (ng/ml) were measured using multiplex technology (Endogen Searchlight, Rockford, Ill.). A one-way ANOVA followed by Newman-Keuls multiple comparison test (significance level, p<0.05) for each individual measured cytokine was used for statistical analysis.

[2] = test system: GA-specific polarized Th2 cells; assay: Th2 assay: cytokine secretion by GA-specific polarized Th2 cells with APCs and antigen, 9-plex MSD multiplex
Protocol: Populations of Th2 cells and APC cells were reanimated in culture media (RPMI/5% FBS/20 ng/mL IL-2), added dropwise. Cells were pelleted at 400-800G before being resuspended in fresh culture media for use in the assay. For the assay, 150,000 APC cells were combined with a concentration of GA using serial dilution of the GA. The resulting concentration curve provided a range from 0-50 μg/mL GA. APC cells were incubated with the GA for about 10 minutes before the Th2 cells were added. The final volume for the assay was 0.2 mL. The set up for the Th2 assay is illustrated in FIG. 7.
More specifically, GA-specific polarized Th2 cells prepared according to Example 1 were cultured in vitro with varying concentrations of GA (reference standard commercial preparation, Copaxone® or glatiramoid (Sigma-Aldrich (COP-1)) in the presence of syngeneic, mitomycin-C-treated, naïve splenic APCs. Cells were cultured in 96-well plates in a final volume of 200 μl per well, with 50 μl of […] splenic APCs (150×10^3/50 μl) freshly isolated from naïve Balb/c mice, 50 μl of GA-specific polarized Th2 cells (50×10^3/50 μl) and 100 μl of culture media (complete RPMI-10 supplemented with 10% FBS) containing RLD or COP-1 at increasing concentrations of GA from 0 to 50 μg/ml. Conditioned culture media was collected 24 hours post stimulation for analysis by multiplex assay and ELISA. Th1 ([…], IL-2, IL-12p70, TNF-α, KC and IFN-γ) and Th2 (IL-4, IL-5, and IL-10) cytokine levels (pg/ml) were measured using the 9-plex mouse Th1/Th2 cytokine kit from Meso Scale Discovery (MSD) (Gaithersburg, Md.).

Question: How did the “IL-4 in the culture media (cross-reactivity)” value (from here on “IL-4 in the culture media”) [1] turn out when “MBP (87-89): myelin basic protein peptide, Peptides International Catalog No. PMB-3973-PI (NRPHLIRLFSRDA; UniProt P04370 87-99, looked up, fragment)” was run?
Answer: no IL-4 was detected

Question: How did the “IL-4 in the culture media” value [1] turn out when “PLP (139-151): encephalitogenic neuroantigen peptide, Peptides International (CHCLGKWLGHPDK; UniProt P60202 139-151, looked up, fragment)” was run?
Answer: no IL-4 was detected

Question: With “L-glutamic acid polymer with L-alanine, L-lysine and L-tyrosine, acetate (salt) [GA]” as the molecule, how does the “levels of Th2 cytokines induced” value (CD4+ T cells; supernatant 72 hours) read?
Answer: high levels

Question: What about the “levels of Th2 cytokines (IL-5, IL-6, IL-10, IL-13) induced” value (CD4+ T cells; after the first round of stimulation, 20 μg/mL antigen, supernatant 72 hours) of the same molecule?
Answer: low but detectable levels

Question: And the “Th17 cytokine IL-17 and Th1 cytokine IL-12p40” value (CD4+ T cells; with the second round of stimulation)?
Answer: selectively down-regulated

Question: How did the “Th2 cytokines (IL-4, IL-5, IL-10) secreted” value ([2]; 0 to 50 μg/ml antigen, 24 hours) turn out when “Poly(Ala, Glu, Lys, Tyr) 6:2:5:1 hydrobromide [COP-1]” was run?
Answer: dose-dependent increase

Question: And the “levels of IL-2 and TNF-α” value ([2]; 0 to 50 μg/ml, 24 hours)?
Answer: quantifiable and exhibited dose dependency

Question: What about the “response versus RLD in secretion of the Th2 cytokines” value ([2]; 0 to 50 μg/ml, 24 hours) of the same molecule?
Answer: readily distinguishable from RLD

Question: And the “levels of secreted Th1 cytokines (IL-1β, KC, IFN-γ)” value ([2]; 0 to 50 μg/ml, 24 hours, not dose dependent)?
Answer: very low (below limits of quantitation)

Question: What about the IL-12 secretion ([2]; 0 to 50 μg/ml, 24 hours, quantitated) of the same molecule?
Answer: not dose dependent

Question: And the “doses at which discriminated from RLD in levels of IL-2 and TNF-α secreted” value ([2]; 24 hours)?
Answer: > 30 µg/mL

Question: And the “levels of Th2 cytokines (IL-4, IL-5, IL-10, IL-13), IL-2, IL-6 and TNF-α compared to restimulation with GA” value ([2]; restimulated in the presence of APCs)?
Answer: significantly decreased levels

Question: Which “IL-4 in the culture media” value [1] does the source give for “MOG (35-55): encephalitogenic neuroantigen peptide, Peptides International (MEVGWYRSPFSRVVHLYRNGK; UniProt Q61885 63-83, looked up, fragment)” here?
Answer: no IL-4 was detected

B1: murine MBP: murine myelin basic protein, EMD Biosciences Catalog No. 124027 (protein, UniProt P04370 1-250, looked up)
Myelin basic protein: MGNHSGKRELSAEKASKDGEIHRGEAGKKRSVGKLSQTASEDSDVFGEADAIQNNGTSAEDTAVTDSKHTADPKNNWQGAHPADPGNRPHLIRLFSRDAPGREDNTFKDRPSESDELQTIQEDPTAASGGLDVMASQKRPSQRSKYLATASTMDHARHGFLPRHRDTGILDSIGRFFSGDRGAPKRGSGKDSHTRTTHYGSLPQKSQHGRTQDENPVVHFFKNIVTPRTPPPSQGKGGRDSRSGSPMARR
Question: With B1 as the molecule, how does the “IL-4 in the culture media” value [1] read?
Answer: no IL-4 was detected

B2: ovalbumin: ovalbumin control antigen (protein, UniProt P01012 2-386, looked up)
Ovalbumin: GSIGAASMEFCFDVFKELKVHHANENIFYCPIAIMSALAMVYLGAKDSTRTQINKVVRFDKLPGFGDSIEAQCGTSVNVHSSLRDILNQITKPNDVYSFSLASRLYAEERYPILPEYLQCVKELYRGGLEPINFQTAADQARELINSWVESQTNGIIRNVLQPSSVDSQTAMVLVNAIVFKGLWEKAFKDEDTQAMPFRVTEQESKPVQMMYQIGLFRVASMASEKMKILELPFASGTMSMLVLLPDEVSGLEQLESIINFEKLTEWTSSNVMEERKIKVYLPRMKMEEKYNLTSVLMAMGITDVFSSSANLSGISSAESLKISQAVHAAHAEINEAGREVVGSAEAGVDAASVSEEFRADHPFLFCIKHIATNAVLFFGRCVSP
Question: For B2, which “levels of Th2 cytokines induced” value (CD4+ T cells; supernatant 72 hours) is on record?
Answer: did not show a corresponding increase

— US20130210054A1, “Amino Acid Copolymer Assay” (Momenta Pharmaceuticals, Inc., priority 2012, published 2013)
